# Test results from patent publication US12661349B1, “Pharmaceutically acceptable salt of sphingosine-1-phosphate receptor agonist, and crystalline form thereof” (LG CHEM, LTD., priority 2021, dated 2026).
# Test: Water solubility by quantitative analysis (HPLC)
# Format: physicochemical
# Settings: for Water solubility (μg/mL, HPLC) 24 hr: comparison of salt forms of Compound 1; for water solubility: quantitative analysis by HPLC, crystalline form of the salt
# Method: (4) Quantitative Analysis (HPLC)
# Approximately 26.7 mg of the sample was precisely weighed and placed in a 500 mL volumetric flask. 450 mL of a diluted solution (methanol:purified water=1:1) was added thereto, completely dissolved, and then filled with the diluted solution up to the marked line. HPLC equipment and analysis methods are represented in Table 1 below.
# Quantitative analysis was carried out in the same manner as in Example 2.
# Various types of salts were prepared. After analyzing characteristics in the same manner as above, the comparisons with potassium salt and methanesulfonic acid salt (mesylate) are represented in Table 4 below.
SMILES,"Water solubility (μg/mL, HPLC) 24 hr (HPLC quantitation, 24 hr)",water solubility,"solubility at 24 h (thermodynamic from solid, HPLC quantitation, 24 hr, comparison of salt forms of Compound 1, read-out: Water solubility (μg/mL, HPLC) 24 hr)"
"CC(C)n1nc(Cl)c2cc(COc3ccc4c(c3)CCC(CN3CCC(C(=O)O)CC3)=C4Cl)ccc21.CS(=O)(=O)O [Mesylate (1 eq.), methanesulfonic acid salt (mesylate) of 1-[1-chloro-6-(3-chloro-1-isopropyl-1H-indazol-5-ylmethoxy)-3,4-dihydro-naphthalen-2-ylmethyl]-piperidine-4-carboxylic acid]",536.8 µg/mL,536.8 µg/mL,
"CC(C)n1nc(Cl)c2cc(COc3ccc4c(c3)CCC(CN3CCC(C(=O)[O-])CC3)=C4Cl)ccc21.[K+] [K salt (1 eq.), potassium salt of 1-[1-chloro-6-(3-chloro-1-isopropyl-1H-indazol-5-ylmethoxy)-3,4-dihydro-naphthalen-2-ylmethyl]-piperidine-4-carboxylic acid]",33238.5 µg/mL,33238.5 µg/mL,
"CC(C)n1nc(Cl)c2cc(COc3ccc4c(c3)CCC(CN3CCC(C(=O)O)CC3)=C4Cl)ccc21 [Free form, 1-[1-Chloro-6-(3-chloro-1-isopropyl-1H-indazol-5-ylmethoxy)-3,4-dihydro-naphthalen-2-ylmethyl]-piperidine-4-carboxylic acid]",,,3.7 µg/mL
